From PMC3287010, “Pharmacokinetic Study of Di-Phenyl-Di-(2,4-Difluobenzohydroxamato)Tin(IV): Novel Metal-Based Complex with Promising Antitumor Potential” (Bioinorganic Chemistry and Applications, 2012)

Assays:
[1] = Pharmacokinetic study in rats after single intravenous administration (HPLC-UV plasma determination, two-compartment model, 3p97 software); assay type: in vivo, Wistar albino rats; set-up: AUC / CL(s): unit not given here; conditions: for A / B / CL(s) / K 10 (first order elimination from compartment 1) / K 12 (first order transfer from compartment 1 to compartment 2) / K 21 (first order transfer from compartment 2 to compartment 1) / V d / t 1/2a (distribution half-life) / t 1/2β (elimination half-life) / β: mean ± SD, n = 6
Protocol: Laboratory bred adult Wistar albino rats (200–250 g), which were supplied by the Animal Research Center at Shanxi Medical University (Taiyuan, Shanxi Province, China), were housed at 25 ± 2°C in a well-ventilated animal house under 12 : 12 h light dark cycle. The animals drank sterilized drinking water, and standard chow diet was supplied ad libitum to each cage. The animal experiments were performed in accordance with the ARVO Statement for the Use of Animals in Ophthalmic and Vision Research and were approved by the Animal Ethics Committee of Shanxi Medical University.
HPLC analysis was carried out using a Waters 2695 HPLC system (Waters Associates, Milford, MA) which consisted of a photodiode array detector, an autosampler, and a degasser. The apparatus was interfaced to a DELL PC compatible computer using Empower Pro software for data acquisition. The sensitivity was 0.2 AUFS. The autosampler was cooled to 10°C. The column was maintained at room temperature. Chromatographic separation of DPDFT and the I.S. was achieved on a Diamonsil C18 column (250 mm × 4.6 mm, 5 μm) from Dikma Technologies (Beijing, China) protected by a SHIMADZU LC guard column at 25°C. The mobile phase for HPLC analysis consisted of phosphoric acid in water (solvent A)/methanol (solvent B) (30 : 70, V/V, pH 3.0) with a flow rate of 0.8 mL·min^−1. A sample volume of 20 μL was injected. Prior to use, the mobile phase was filtered through a 0.45 μm hydrophilic membrane filter. The photodiode array detector was set at a wavelength of 228 nm at room temperature. Under the chromatographic condition mentioned above, DPDFT and the I.S. acetanilide could be separated completely in the chromatograms (R > 1.5), and there was no endogenous interference with the chromatographic peak of DPDFT and the I.S.acetanilide. Besides, the retention time of acetanilide (t R = 15.67 min) was very suitable as the I.S. compared to that of DPDFT (t R = 8.34 min).
Blood samples collected from rat blood plasma were immediately transferred to 1.5 mL heparinized microcentrifuge tubes from fossa orbitalis of rats, and then processed for plasma by centrifugation. The supernatant plasma (0.2 mL) was then vortex-mixed with methanol (0.4 mL) containing acetanilide (0.2 mL, 50.0 μg·mL^−1) as internal standard (I.S.) for 30 s. After vortex-mixing, the mixture was centrifuged at 13000 rpm for 10 min 4°C to separate precipitated proteins. The supernatant solution of methanol layer was filtered through a 0.45 μm membrane filter. Twenty microliters of filtrate were injected into the chromatography. The same sample processing was also applied to the recovery and to the precision study in plasma. All harvested samples stored at −4°C were brought to room temperature before use and analyzed within one week.
To evaluate the suitability of the assay for pharmacokinetic studies, 7.5, 15, and 30 mg·kg^−1 of DPDFT were intravenously administered to rats (half males and half females, resp.). Six animals were used in each dosage by direct injection into a lateral tail vein, with a duration of infusion less than 1 min. Heparinized blood samples (0.5 mL) were collected at 0, 1, 3, 5, 10, 30, 60, and 120 min after injection. […]. After each sampling, the removed volume of blood was supplemented with an equal volume of sodium chloride. The blood samples were immediately centrifuged and the resulting plasma was prepared according to the procedure given for the calibrators. Pharmacokinetic calculations were performed using the observed data. […] All values obtained were expressed in mean ± standard deviation.

[2] = Stability of DPDFT in rat plasma QC samples (freeze/thaw, storage, autosampler); assay type: in vitro ADME
Protocol: Quality control (QC) samples were used to determine the accuracy and precision of method and were independently prepared at low (0.8 μg·mL^−1), medium (4 μg·mL^−1), and high (20 μg·mL^−1) concentrations. To evaluate the accuracy and precision, we used at least five QC samples of three different concentrations of DPDFT. The intraday and interday accuracies were expressed as the percentage difference between the measured concentration and the nominal concentration in rat plasma. The intraday precision and accuracy were calculated using replicate (n = 6) determinations for each concentration of the spiked plasma sample during a single analytical run. The interassay precision and accuracy were calculated using replicate (n = 6) determinations of each concentration made on three separate days. The variability of determination was expressed as the relative standard deviation (RSD) which should be ≤15%, covering the range of actual experimental concentrations.
The stability of DPDFT in rat plasma was assessed by analyzing replicates (n = 6) of QC samples at concentrations of 0.8, 4, 20 μg·mL^−1, respectively. The investigation covered the expected conditions during all of the sample storage and process periods, which included the stability data from freeze/thaw cycle and long-term stability tests. The concentrations obtained from stability studies were compared with the freshly prepared QC samples, and the percentage concentration deviation was calculated. In each freeze–thaw cycle, the samples were frozen and stored at −20°C for 10 days, then thawed at room temperature. The stability of the fresh plasma samples was tested after keeping the samples at […], −20°C and room temperature for 72 h. The stability of deproteinized samples at 10°C in the autosampler was evaluated up to 24 h.

[3] = Stability of stock solution stored at 4°C; assay type: physicochemical; conditions: stock solution in methanol
Protocol: A stock solution of DPDFT was prepared in methanol at the concentration of 100 mg·mL^−1 and was further diluted in HPLC mobile phase to make working standards. The I.S. stock solution was prepared and diluted to 50.0 μg·mL^−1 working solution with HPLC mobile phase. All the stock solutions were maintained at 4°C until use.
Stability of DPDFT during storage and processing was checked using quality control samples. The DPDFT and I.S. stock solutions were stable for at least 2 months when stored at 4°C. The deviation of the mean test responses was within ±10% of appropriate controls in all stability tests of DPDFT in rat plasma. After three freeze-thaw cycles, the concentration changes of DPDFT were less than 7%. The analyte was stable in the matrices at 4, −20°C and room temperature for 72 h without significant degradation (<8%).

[4] = Stability of DPDFT in rat plasma QC samples (freeze/thaw, storage, autosampler); assay type: in vitro ADME; conditions: 72 h at 4°C
[5] = rats, i.v., 15 mg·kg^−1 (middle)
[6] = rats, i.v., 7.5, 15, and 30 mg·kg^−1

Structure (SMILES): O=C(N[O][Sn]([O]NC(=O)c1ccc(F)cc1F)([c]1ccccc1)[c]1ccccc1)c1ccc(F)cc1F [DPDFT, Di-phenyl-di-(2,4-difluobenzohydroxamato)tin(IV)]
- DPDFT concentration in blood sample ([1]; collected at 3 min after administration of 15 mg·kg^−1, i.v.): 2.4 µg/mL
- A ([1]; rats, i.v., 7.5 mg·kg^−1 (low)): 2.21 ± 0.03 min⁻¹
- B ([1]; rats, i.v., 7.5 mg·kg^−1 (low)): 0.15 ± 0.04 mg/kg
- CL(s) ([1]; rats, i.v., 7.5 mg·kg^−1 (low)): 0.66 ± 0.05
- K 10 (first order elimination from compartment 1) ([1]; rats, i.v., 7.5 mg·kg^−1 (low)): 0.32 ± 0.05 min⁻¹
- K 12 (first order transfer from compartment 1 to compartment 2) ([1]; rats, i.v., 7.5 mg·kg^−1 (low)): 0.26 ± 0.04 min⁻¹
- K 21 (first order transfer from compartment 2 to compartment 1) ([1]; rats, i.v., 7.5 mg·kg^−1 (low)): 0.08 ± 0.004 min⁻¹
- V d ([1]; rats, i.v., 7.5 mg·kg^−1 (low)): 2.13 ± 0.07 L/kg
- t 1/2a (distribution half-life) ([1]; rats, i.v., 7.5 mg·kg^−1 (low)): 1.04 ± 0.01 min
- t 1/2β (elimination half-life) ([1]; rats, i.v., 7.5 mg·kg^−1 (low)): 17.68 ± 2.6 min
- β ([1]; rats, i.v., 7.5 mg·kg^−1 (low)): 0.04 ± 0.003 min⁻¹
- A [1, 5]: 7.94 ± 3.12 min⁻¹
- B [1, 5]: 0.92 ± 0.04 mg/kg
- CL(s) [1, 5]: 0.27 ± 0.02
- K 10 (first order elimination from compartment 1) [1, 5]: 0.24 ± 0.08 min⁻¹
- K 12 (first order transfer from compartment 1 to compartment 2) [1, 5]: 0.38 ± 0.01 min⁻¹
- K 21 (first order transfer from compartment 2 to compartment 1) [1, 5]: 0.11 ± 0.01 min⁻¹
- V d [1, 5]: 1.13 ± 0.08 L/kg
- t 1/2a (distribution half-life) [1, 5]: 1.01 ± 0.01 min
- t 1/2β (elimination half-life) [1, 5]: 19.38 ± 3.6 min
- β [1, 5]: 0.04 ± 0.003 min⁻¹
- A ([1]; rats, i.v., 30 mg·kg^−1 (high)): 22.36 ± 8.12 min⁻¹
- B ([1]; rats, i.v., 30 mg·kg^−1 (high)): 1.85 ± 0.44 mg/kg
- K 10 (first order elimination from compartment 1) ([1]; rats, i.v., 30 mg·kg^−1 (high)): 0.30 ± 0.18 min⁻¹
- K 12 (first order transfer from compartment 1 to compartment 2) ([1]; rats, i.v., 30 mg·kg^−1 (high)): 0.28 ± 0.11 min⁻¹
- K 21 (first order transfer from compartment 2 to compartment 1) ([1]; rats, i.v., 30 mg·kg^−1 (high)): 0.09 ± 0.01 min⁻¹
- V d ([1]; rats, i.v., 30 mg·kg^−1 (high)): 0.62 ± 0.08 L/kg
- t 1/2a (distribution half-life) ([1]; rats, i.v., 30 mg·kg^−1 (high)): 1.12 ± 0.1 min
- t 1/2β (elimination half-life) ([1]; rats, i.v., 30 mg·kg^−1 (high)): 16.81 ± 3.6 min
- β ([1]; rats, i.v., 30 mg·kg^−1 (high)): 0.04 ± 0.003 min⁻¹
- compartment model fitted to concentration-time data [1, 6]: two-compartment model
- difference in pharmacokinetic parameters between male and female rats [1, 6]: no significant differences
- dose linearity of pharmacokinetics ([1]; rats, i.v., from 7.5 to 30 mg/kg): nonlinear process
- deviation of the mean test responses from appropriate controls ([2]; all stability tests in rat plasma): ≤ 10%
- run-time stability (concentration change) ([2]; deproteinized rat plasma, 10°C for up to 24 h): < 6%
- Accuracy = [(Cobs − Cnom)/Cnom] × 100 ([2]; deproteinized rat plasma, autosampler 24 h at 10°C, nominal 0.8 μg·mL^−1): 3.75%
- Observed concentration ± SD ([2]; deproteinized rat plasma, autosampler 24 h at 10°C, nominal 0.8 μg·mL^−1, n = 6): 0.83 ± 0.04 µg/mL
- Accuracy = [(Cobs − Cnom)/Cnom] × 100 ([2]; deproteinized rat plasma, autosampler 24 h at 10°C, nominal 4 μg·mL^−1): −4.25%
- Observed concentration ± SD ([2]; deproteinized rat plasma, autosampler 24 h at 10°C, nominal 4 μg·mL^−1, n = 6): 3.83 ± 0.18 µg/mL
- Accuracy = [(Cobs − Cnom)/Cnom] × 100 ([2]; deproteinized rat plasma, autosampler 24 h at 10°C, nominal 20 μg·mL^−1): −4.05%
- Observed concentration ± SD ([2]; deproteinized rat plasma, autosampler 24 h at 10°C, nominal 20 μg·mL^−1, n = 6): 19.19 ± 1.08 µg/mL
- degradation in the matrices ([2]; rat plasma, 4, −20°C and room temperature for 72 h): < 8%
- Accuracy = [(Cobs − Cnom)/Cnom] × 100 ([2]; rat plasma, 72 h at 4°C, nominal 0.8 μg·mL^−1): 8.75%
- Observed concentration ± SD ([2]; rat plasma, 72 h at 4°C, nominal 0.8 μg·mL^−1, n = 6): 0.87 ± 0.04 µg/mL
- Observed concentration ± SD ([2]; rat plasma, 72 h at 4°C, nominal 4 μg·mL^−1, n = 6): 3.70 ± 0.16 µg/mL
- Accuracy = [(Cobs − Cnom)/Cnom] × 100 ([2]; rat plasma, 72 h at 4°C, nominal 20 μg·mL^−1): 5.70%
- Accuracy = [(Cobs − Cnom)/Cnom] × 100 ([2]; rat plasma, 72 h at room temperature, nominal 0.8 μg·mL^−1): −2.50%
- Observed concentration ± SD ([2]; rat plasma, 72 h at room temperature, nominal 0.8 μg·mL^−1, n = 6): 0.78 ± 0.05 µg/mL
- Accuracy = [(Cobs − Cnom)/Cnom] × 100 ([2]; rat plasma, 72 h at room temperature, nominal 4 μg·mL^−1): −3.25%
- Observed concentration ± SD ([2]; rat plasma, 72 h at room temperature, nominal 4 μg·mL^−1, n = 6): 3.87 ± 0.19 µg/mL
- Observed concentration ± SD ([2]; rat plasma, 72 h at room temperature, nominal 20 μg·mL^−1, n = 6): 19.46 ± 1.19 µg/mL
- Accuracy = [(Cobs − Cnom)/Cnom] × 100 ([2]; rat plasma, 72 h at −20°C, nominal 0.8 μg·mL^−1): −7.50%
- Observed concentration ± SD ([2]; rat plasma, 72 h at −20°C, nominal 0.8 μg·mL^−1, n = 6): 0.74 ± 0.05 µg/mL
- Accuracy = [(Cobs − Cnom)/Cnom] × 100 ([2]; rat plasma, 72 h at −20°C, nominal 4 μg·mL^−1): 5.50%
- Observed concentration ± SD ([2]; rat plasma, 72 h at −20°C, nominal 4 μg·mL^−1, n = 6): 4.22 ± 0.12 µg/mL
- Accuracy = [(Cobs − Cnom)/Cnom] × 100 ([2]; rat plasma, 72 h at −20°C, nominal 20 μg·mL^−1): −4.35%
- Observed concentration ± SD ([2]; rat plasma, 72 h at −20°C, nominal 20 μg·mL^−1, n = 6): 19.13 ± 1.53 µg/mL
- concentration changes after three freeze-thaw cycles ([2]; rat plasma, frozen at −20°C, thawed at room temperature): less than 7%
- Accuracy = [(Cobs − Cnom)/Cnom] × 100 ([2]; rat plasma, three freeze and thaw cycles, nominal 0.8 μg·mL^−1): −5.00%
- Observed concentration ± SD ([2]; rat plasma, three freeze and thaw cycles, nominal 0.8 μg·mL^−1, n = 6): 0.76 ± 0.05 µg/mL
- Accuracy = [(Cobs − Cnom)/Cnom] × 100 ([2]; rat plasma, three freeze and thaw cycles, nominal 4 μg·mL^−1): −5.25%
- Observed concentration ± SD ([2]; rat plasma, three freeze and thaw cycles, nominal 4 μg·mL^−1, n = 6): 3.79 ± 0.13 µg/mL
- Accuracy = [(Cobs − Cnom)/Cnom] × 100 ([2]; rat plasma, three freeze and thaw cycles, nominal 20 μg·mL^−1): −5.15%
- Observed concentration ± SD ([2]; rat plasma, three freeze and thaw cycles, nominal 20 μg·mL^−1, n = 6): 18.97 ± 1.17 µg/mL
- time stock solution was stable [3]: at least 2 months
- Accuracy = [(Cobs − Cnom)/Cnom] × 100 ([4]; nominal 4 μg·mL^−1): −7.50%
- Observed concentration ± SD ([4]; nominal 20 μg·mL^−1, n = 6): 21.14 ± 1.27 µg/mL
